Assay results taken from patent US11912703B2, “6-azaindole compounds” (BRISTOL-MYERS SQUIBB COMPANY, priority 2017, dated 2024).
pIC50: −log10 of the molar value. Where two headings read alike, the source gives them in different places.

Columns and labels:
human TLR7 = human TLR7 (Homo sapiens (Human), UniProt Q9NYK1); assay: TLR7 inhibition reporter assay (HEK-Blue SEAP); format: cell-based; conditions: HEK-Blue cells overexpressing human TLR7, gardiquimod 7.5 μM stimulation
human TLR8 = human TLR8 (Homo sapiens (Human), UniProt Q9NR97); assay: TLR8 inhibition reporter assay (HEK-Blue SEAP);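 also: SEAP driven by IFN-β minimal promoter with five NF-κB and AP-1 sites, compounds tested 0.05 nM to 50 µM, 22 h incubation, inhibition relative to agonist plus DMSO wells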
human TLR8, sequence (Q9NR97 27-1041): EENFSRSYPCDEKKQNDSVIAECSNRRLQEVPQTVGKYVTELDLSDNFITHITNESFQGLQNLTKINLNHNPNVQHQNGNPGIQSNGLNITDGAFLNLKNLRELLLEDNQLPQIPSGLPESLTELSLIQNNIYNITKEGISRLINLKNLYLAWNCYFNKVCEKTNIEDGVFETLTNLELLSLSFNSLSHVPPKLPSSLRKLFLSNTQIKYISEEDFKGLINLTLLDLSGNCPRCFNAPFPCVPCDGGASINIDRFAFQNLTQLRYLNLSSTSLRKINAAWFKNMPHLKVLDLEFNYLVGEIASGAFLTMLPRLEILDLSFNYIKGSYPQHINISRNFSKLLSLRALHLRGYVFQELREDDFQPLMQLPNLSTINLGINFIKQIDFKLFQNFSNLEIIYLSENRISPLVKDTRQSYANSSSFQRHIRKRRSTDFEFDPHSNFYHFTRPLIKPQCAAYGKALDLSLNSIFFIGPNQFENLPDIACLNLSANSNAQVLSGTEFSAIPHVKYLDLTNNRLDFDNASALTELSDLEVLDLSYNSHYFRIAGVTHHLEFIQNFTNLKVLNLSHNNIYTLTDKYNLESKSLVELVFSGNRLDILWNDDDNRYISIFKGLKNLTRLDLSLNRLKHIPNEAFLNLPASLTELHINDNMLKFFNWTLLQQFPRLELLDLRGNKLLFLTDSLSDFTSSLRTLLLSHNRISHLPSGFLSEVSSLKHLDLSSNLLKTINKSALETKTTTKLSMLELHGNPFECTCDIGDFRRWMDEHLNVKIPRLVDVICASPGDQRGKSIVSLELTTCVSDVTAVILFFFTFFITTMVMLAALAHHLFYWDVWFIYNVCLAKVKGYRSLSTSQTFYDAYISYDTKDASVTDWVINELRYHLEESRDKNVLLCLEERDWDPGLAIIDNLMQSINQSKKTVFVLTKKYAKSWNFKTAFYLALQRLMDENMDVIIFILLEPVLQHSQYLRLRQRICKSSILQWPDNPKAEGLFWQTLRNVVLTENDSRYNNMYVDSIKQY

human TLR9 = human TLR9 (Homo sapiens (Human), UniProt Q9NR96); assay: TLR9 inhibition reporter assay (HEK-Blue SEAP);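 also: SEAP driven by IFN-β minimal promoter carrying five NF-κB and AP-1 sites, 22 h at 37 °C, compounds 0.05 nM–50 µM, inhibition scaled between agonist-plus-DMSO and reference-inhibitor wells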
human TLR9, sequence (Q9NR96 26-1032): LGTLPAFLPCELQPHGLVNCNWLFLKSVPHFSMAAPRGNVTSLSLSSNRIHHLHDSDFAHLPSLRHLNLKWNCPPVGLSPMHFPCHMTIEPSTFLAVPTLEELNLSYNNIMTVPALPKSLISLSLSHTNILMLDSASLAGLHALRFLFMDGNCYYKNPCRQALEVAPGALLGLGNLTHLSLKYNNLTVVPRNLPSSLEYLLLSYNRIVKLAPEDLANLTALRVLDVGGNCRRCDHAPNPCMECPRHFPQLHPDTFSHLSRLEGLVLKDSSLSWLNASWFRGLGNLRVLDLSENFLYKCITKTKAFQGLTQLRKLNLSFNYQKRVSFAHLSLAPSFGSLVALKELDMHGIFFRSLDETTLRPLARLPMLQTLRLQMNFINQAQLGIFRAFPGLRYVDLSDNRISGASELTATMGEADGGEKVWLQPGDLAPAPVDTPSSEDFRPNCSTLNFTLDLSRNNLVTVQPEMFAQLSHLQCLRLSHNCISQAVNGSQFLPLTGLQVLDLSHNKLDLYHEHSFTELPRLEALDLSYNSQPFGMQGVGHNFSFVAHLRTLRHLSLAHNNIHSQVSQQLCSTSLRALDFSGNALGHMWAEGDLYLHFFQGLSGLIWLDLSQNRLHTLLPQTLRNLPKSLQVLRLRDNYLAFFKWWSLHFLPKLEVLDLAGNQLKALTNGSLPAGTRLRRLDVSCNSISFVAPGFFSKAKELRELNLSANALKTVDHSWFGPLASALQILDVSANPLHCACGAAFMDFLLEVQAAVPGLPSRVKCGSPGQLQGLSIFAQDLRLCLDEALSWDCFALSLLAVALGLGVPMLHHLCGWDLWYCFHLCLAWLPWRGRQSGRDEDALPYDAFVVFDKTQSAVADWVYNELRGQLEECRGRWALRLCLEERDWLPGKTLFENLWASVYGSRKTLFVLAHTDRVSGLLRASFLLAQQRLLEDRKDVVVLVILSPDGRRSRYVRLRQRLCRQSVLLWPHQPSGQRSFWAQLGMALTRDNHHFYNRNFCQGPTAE

[1] = read-out: TLR8 IC50; HEK-Blue cells overexpressing human TLR8, R848 15.9 μM stimulation, SEAP reporter
[2] = read-out: TLR9 IC50; HEK-Blue cells overexpressing human TLR9, ODN2006 5 nM stimulation, SEAP reporter
[3] = read-out: TLR8 IC50; HEK-Blue cells overexpressing human TLR8; R848 15.9 μM stimulation; SEAP reporter
[4] = read-out: TLR9 IC50; HEK-Blue cells overexpressing human TLR9; ODN2006 5 nM stimulation; SEAP reporter

human TLR7, sequence (Q9NYK1 27-1049): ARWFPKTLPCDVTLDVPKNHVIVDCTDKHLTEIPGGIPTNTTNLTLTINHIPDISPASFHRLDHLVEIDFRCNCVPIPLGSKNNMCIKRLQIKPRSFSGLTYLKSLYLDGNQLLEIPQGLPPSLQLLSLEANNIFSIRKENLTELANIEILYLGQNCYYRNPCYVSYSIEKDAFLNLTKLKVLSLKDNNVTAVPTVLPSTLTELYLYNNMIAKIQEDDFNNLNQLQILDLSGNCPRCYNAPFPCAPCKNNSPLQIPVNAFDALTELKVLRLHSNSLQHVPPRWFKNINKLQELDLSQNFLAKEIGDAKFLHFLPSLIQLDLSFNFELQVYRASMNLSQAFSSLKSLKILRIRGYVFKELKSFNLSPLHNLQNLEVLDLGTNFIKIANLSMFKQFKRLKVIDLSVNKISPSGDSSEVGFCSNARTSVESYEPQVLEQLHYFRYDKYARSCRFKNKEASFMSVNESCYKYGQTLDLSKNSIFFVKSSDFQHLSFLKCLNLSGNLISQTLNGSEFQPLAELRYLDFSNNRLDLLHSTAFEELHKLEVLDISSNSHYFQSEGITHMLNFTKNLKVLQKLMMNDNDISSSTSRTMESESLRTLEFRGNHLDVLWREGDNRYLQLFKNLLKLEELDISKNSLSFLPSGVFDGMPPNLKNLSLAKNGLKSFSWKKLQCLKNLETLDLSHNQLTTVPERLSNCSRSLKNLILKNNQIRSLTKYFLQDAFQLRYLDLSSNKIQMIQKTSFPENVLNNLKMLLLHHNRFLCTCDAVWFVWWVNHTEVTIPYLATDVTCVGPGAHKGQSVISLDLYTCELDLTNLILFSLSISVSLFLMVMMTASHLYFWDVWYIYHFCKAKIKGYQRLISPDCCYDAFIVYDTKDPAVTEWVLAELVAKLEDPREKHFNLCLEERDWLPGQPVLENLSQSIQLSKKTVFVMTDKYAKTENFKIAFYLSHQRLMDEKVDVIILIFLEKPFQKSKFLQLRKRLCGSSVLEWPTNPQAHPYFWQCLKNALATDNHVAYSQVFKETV

Row | pIC50 (human TLR7) | pIC50 (human TLR8; [1]) | pIC50 (human TLR9; [2]) | pIC50 (human TLR8; [3]) | pIC50 (human TLR9; [4]) | SMILES
1 | 8.62 | 8.59 | 5.94 |  |  | Cc1cc(-c2[nH]c3cnc(C4CCC(NC(C)C)CC4)c(F)c3c2C(C)C)cn2ncnc12 (centres unmarked) [Example 198]
2 | 9.08 | 8.70 | 5.92 |  |  | CCN(C)C1CCC(c2ncc3[nH]c(-c4cc(C)c5ncnn5c4)c(C(C)C)c3c2F)CC1 (centres unmarked) [Example 199]
3 | 9.31 | 9.28 | 5.75 |  |  | COc1cc(-c2[nH]c3cnc(N4CCC(NC5CCOCC5)CC4)c(C)c3c2C(C)C)cn2ncnc12 [Example 201]
4 | 7.92 | 7.80 | 6.56 |  |  | COc1cc(-c2[nH]c3cnc(C4CCC(N5CC6(COC6)C5)C4)cc3c2C(C)C)cn2ncnc12 (centres unmarked) [Example 208]
5 | 7.54 | 7.01 | 5.97 |  |  | COc1cc(-c2[nH]c3cnc(C4CCC(N5CC6(COC6)C5)C4)cc3c2C(C)C)cn2ncnc12 (centres unmarked) [Example 209]
6 | 8.80 | 8.42 | 5.68 |  |  | Cc1cc(-c2[nH]c3cnc(C4CCN(C(C)C)CC4)c(F)c3c2C(C)C)cn2ncnc12 [Example 212]
7 | 8.82 | 8.52 | 6.29 |  |  | COc1cc(-c2[nH]c3cnc(N4CCNCC4)c(C)c3c2C(C)C)cn2ncnc12 [Example 213, 6-(3-isopropyl-4-methyl-5-(piperazin-1-yl)-1H-pyrrolo [2,3-c]pyridin-2-yl)-8-methoxy-[1,2,4]triazolo[1,5-a]pyridine]
8 | 8.47 |  |  | 8.36 | 5.12 | COc1cc(-c2[nH]c3cnc(C4CCN(C5CCOCC5)CC4)c(F)c3c2C(C)C)cn2ncnc12 [Example 217]
9 | 9.09 |  |  | 9.22 | 5.32 | COc1cc(-c2[nH]c3cnc(N4CCC(N(C)C)CC4)c(F)c3c2C(C)C)cn2ncnc12 [Example 218]
10 | 9.13 |  |  | 9.46 | 5.34 | Cc1cc(-c2[nH]c3cnc(N4CCC(NC5CCOCC5)CC4)c(F)c3c2C(C)C)cn2ncnc12 [Example 220]
11 | 8.96 |  |  | 9.15 | 5.59 | CNC(=O)CN(C)C1CCN(c2ncc3[nH]c(-c4cc(OC)c5ncnn5c4)c(C(C)C)c3c2F)CC1 [Example 221]
12 | 8.49 |  |  | 8.57 | 5.24 | COc1cc(-c2[nH]c3cnc(N4CCC(N(C)CC(N)=O)CC4)c(F)c3c2C(C)C)cn2ncnc12 [Example 222]
13 | 8.57 |  |  | 8.62 | 5.95 | COc1cc(-c2[nH]c3cnc(C4CCC(NC5COC5)CC4)c(F)c3c2C(C)C)cn2ncnc12 (centres unmarked) [Example 223]
14 | 9.40 |  |  | 9.21 | 6.17 | COc1cc(-c2[nH]c3cnc(C4CCC(NC5COC5)CC4)c(F)c3c2C(C)C)cn2ncnc12 (centres unmarked) [Example 224]
15 | 8.40 |  |  | 8.85 | 5.33 | COc1cc(-c2[nH]c3cnc(C4CCC(NCC5(C)COC5)CC4)c(F)c3c2C(C)C)cn2ncnc12 (centres unmarked) [Example 225]
16 | 9.29 |  |  | 9.14 | 5.89 | COc1cc(-c2[nH]c3cnc(C4CCC(N5CC6(COC6)C5)CC4)c(F)c3c2C(C)C)cn2ncnc12 (centres unmarked) [Example 226]
17 | 8.72 |  |  | 8.59 | 5.36 | COc1cc(-c2[nH]c3cnc(C4CCC(N(C)C(C)C)CC4)c(F)c3c2C(C)C)cn2ncnc12 (centres unmarked) [Example 227]
18 | 8.82 |  |  | 8.59 | 6.09 | CCN(C)C1CCC(c2ncc3[nH]c(-c4cc(OC)c5ncnn5c4)c(C(C)C)c3c2F)CC1 (centres unmarked) [Example 228]
19 | 8.06 |  |  | 8.38 | 5.84 | COc1cc(-c2[nH]c3cnc(C4CCC(NCC(C)(C)C)CC4)c(F)c3c2C(C)C)cn2ncnc12 (centres unmarked) [Example 229]
20 | 9.39 |  |  | 9.11 | 5.77 | Cc1cc(-c2[nH]c3cnc(C4CCC(NC(C)C)CC4)c(F)c3c2C(C)C)cn2ncnc12 (centres unmarked) [Example 230]
21 | 8.23 |  |  | 8.18 | 5.38 | Cc1cc(-c2[nH]c3cnc(C4CCC(NC5(C)COC5)CC4)c(F)c3c2C(C)C)cn2ncnc12 (centres unmarked) [Example 231]
22 | 7.96 |  |  | 8.49 | 5.35 | Cc1c(-c2[nH]c3cnc(C4CCC(NC5CCOCC5)CC4)c(F)c3c2C(C)C)cn2ncnc2c1C (centres unmarked) [Example 232]
23 | 8.57 |  |  | 8.44 | 5.94 | Cc1c(-c2[nH]c3cnc(C4CCC(N5CCC5)CC4)c(F)c3c2C(C)C)cn2ncnc2c1C (centres unmarked) [Example 233]
24 | 8.46 | 7.96 | 6.55 |  |  | COc1cc(-c2[nH]c3cnc(C4CCC(NC5CCOCC5)CC4)c(C)c3c2C(C)C)cn2ncnc12 (centres unmarked) [Example 241]
25 | 7.96 | 7.85 | 6.40 |  |  | COc1cc(-c2[nH]c3cnc(C4CCC(NC5COC5)CC4)c(C)c3c2C(C)C)cn2ncnc12 (centres unmarked) [Example 242]
26 | 9.10 | 8.32 | 6.37 |  |  | COc1cc(-c2[nH]c3cnc(C4CCC(NC5COC5)CC4)c(C)c3c2C(C)C)cn2ncnc12 (centres unmarked) [Example 243]
27 | 8.05 | 7.80 | 6.23 |  |  | COc1cc(-c2[nH]c3cnc(C4CCC(NCC(C)(C)F)CC4)c(C)c3c2C(C)C)cn2ncnc12 (centres unmarked) [Example 244]
28 | 8.20 | 7.33 | 6.59 |  |  | COc1cc(-c2[nH]c3cnc(C4CCC(N5CC6(COC6)C5)CC4)c(C)c3c2C(C)C)cn2ncnc12 (centres unmarked) [Example 245]
29 | 8.70 | 7.77 | 6.15 |  |  | COc1cc(-c2[nH]c3cnc(C4CCC(N5CC6(COC6)C5)CC4)c(C)c3c2C(C)C)cn2ncnc12 (centres unmarked) [Example 246]

Continued, compound first:

Row | SMILES | pIC50 (human TLR7) | pIC50 (human TLR8; [1]) | pIC50 (human TLR9; [2]) | pIC50 (human TLR8; [3]) | pIC50 (human TLR9; [4])
30 | Cc1c(-c2[nH]c3cnc(C4CCC(NCC(C)(C)C)CC4)c(F)c3c2C(C)C)cn2ncnc2c1C (centres unmarked) [Example 200] | 8.52 | 8.96 | 5.06 |  | 
31 | COc1cc(-c2[nH]c3cnc(N4CCC(NC(C)C)CC4)c(C)c3c2C(C)C)cn2ncnc12 [Example 202] | 9.46 | 8.92 | 5.61 |  | 
32 | Cc1c(-c2[nH]c3cnc(C4CCC(NCC5(C)COC5)CC4)c(C)c3c2C(C)C)cn2ncnc2c1C (centres unmarked) [Example 203] | 7.57 | 8.03 | 6.29 |  | 
33 | Cc1c(-c2[nH]c3cnc(C4CCC(NCC5(C)COC5)CC4)c(C)c3c2C(C)C)cn2ncnc2c1C (centres unmarked) [Example 204] | 8.18 | 8.51 | 6.33 |  | 
34 | Cc1c(-c2[nH]c3cnc(N4CCC(NC5CCOCC5)CC4)c(C)c3c2C(C)C)cn2ncnc2c1C [Example 205] | 8.92 | 9.26 | 6.22 |  | 
35 | COc1cc(-c2[nH]c3cnc(C4CCC(NCC(C)(C)C)C4)cc3c2C(C)C)cn2ncnc12 (centres unmarked) [Example 210] | 7.47 | 8.18 | 5.97 |  | 
36 | COc1cc(-c2[nH]c3cnc(C4CCC(NCC(C)(C)OC)C4)cc3c2C(C)C)cn2ncnc12 (centres unmarked) [Example 211] | 7.39 | 7.36 | 5.65 |  | 
37 | CNCC(=O)N1CCC(c2ncc3[nH]c(-c4cc(C)nc(C)c4)c(C(C)C)c3c2F)CC1 [Example 214] | 8.12 | 7.80 | 5.68 |  | 
38 | Cc1cc(-c2[nH]c3cnc(C4CCN(CC5(C)COC5)CC4)c(F)c3c2C(C)C)cc(C)n1 [Example 215] | 8.38 |  |  | 8.43 | 5.70
39 | COCCN1CCC(c2ncc3[nH]c(-c4cc(C)nc(C)c4)c(C(C)C)c3c2F)CC1 [Example 216] | 7.85 |  |  | 7.92 | 5.33
40 | Cc1cc(-c2[nH]c3cnc(N4CCC(NC(C)C)CC4)c(F)c3c2C(C)C)cn2ncnc12 [Example 219] | 9.07 |  |  | 9.25 | 5.72
41 | Cc1c(-c2[nH]c3cnc(C4CCC(NCC(C)(C)C)CC4)c(F)c3c2C(C)C)cn2ncnc2c1C (centres unmarked) [Example 234] | 7.89 | 8.59 | 6.13 | 8.59 | 6.13
42 | CCN(C)C1CCN(c2ncc3[nH]c(-c4cc(C)c5ncnn5c4)c(C(C)C)c3c2C)CC1 [Example 235] | 9.62 | 9.00 | 5.66 | 9.00 | 5.66
43 | Cc1c(N2CCC(NC(C)C)CC2)ncc2[nH]c(-c3cc(C)c4ncnn4c3)c(C(C)C)c12 [Example 236] | 9.18 | 8.96 | 6.03 | 8.96 | 6.03
44 | Cc1c(-c2[nH]c3cnc(N4CCC(NC5COC5)CC4)c(C)c3c2C(C)C)cn2ncnc2c1C [Example 237] | 8.80 | 9.02 | 5.68 | 9.02 | 5.68
45 | Cc1c(-c2[nH]c3cnc(C4CCC(NC56CC(C5)C6)CC4)c(F)c3c2C(C)C)cn2ncnc2c1C (centres unmarked) [Example 238] | 7.21 | 7.68 | 4.55 |  | 
46 | Cc1c(-c2[nH]c3cnc(C4CCC(NC56CC(C5)C6)CC4)c(F)c3c2C(C)C)cn2ncnc2c1C (centres unmarked) [Example 239] | 8.59 | 8.59 | 4.80 |  | 
47 | Cc1c(-c2[nH]c3cnc(C4CCC(NC[C@@H](F)C(C)(C)O)CC4)c(F)c3c2C(C)C)cn2ncnc2c1C (some centres unmarked) [Example 240] | 9.02 | 9.41 | 5.56 |  | 
48 | Cc1c(-c2[nH]c3cnc(C4CCC(NCC(C)(C)C)CC4)c(C)c3c2C(C)C)cn2ncnc2c1C (centres unmarked) [Example 247] | 7.80 | 8.00 | 6.14 |  | 
49 | CCN(C)C1CCC(c2cc3c(C(C)C)c(-c4cc(OC)c5ncnn5c4)[nH]c3cn2)C1 (centres unmarked) [Example 248] | 8.24 | 8.17 | 6.40 |  | 
